Biological target: T1, human Patched (Patched 1; hPatched-MAP) (Homo sapiens, UniProt Q13635)
T1 construct: gene PTCH1; human Patched with MAP tag from pYEP-hPatched-MAP, expressed in Saccharomyces cerevisiae K699; whole yeast, not purified
T1 sequence (Q13635 1-1447): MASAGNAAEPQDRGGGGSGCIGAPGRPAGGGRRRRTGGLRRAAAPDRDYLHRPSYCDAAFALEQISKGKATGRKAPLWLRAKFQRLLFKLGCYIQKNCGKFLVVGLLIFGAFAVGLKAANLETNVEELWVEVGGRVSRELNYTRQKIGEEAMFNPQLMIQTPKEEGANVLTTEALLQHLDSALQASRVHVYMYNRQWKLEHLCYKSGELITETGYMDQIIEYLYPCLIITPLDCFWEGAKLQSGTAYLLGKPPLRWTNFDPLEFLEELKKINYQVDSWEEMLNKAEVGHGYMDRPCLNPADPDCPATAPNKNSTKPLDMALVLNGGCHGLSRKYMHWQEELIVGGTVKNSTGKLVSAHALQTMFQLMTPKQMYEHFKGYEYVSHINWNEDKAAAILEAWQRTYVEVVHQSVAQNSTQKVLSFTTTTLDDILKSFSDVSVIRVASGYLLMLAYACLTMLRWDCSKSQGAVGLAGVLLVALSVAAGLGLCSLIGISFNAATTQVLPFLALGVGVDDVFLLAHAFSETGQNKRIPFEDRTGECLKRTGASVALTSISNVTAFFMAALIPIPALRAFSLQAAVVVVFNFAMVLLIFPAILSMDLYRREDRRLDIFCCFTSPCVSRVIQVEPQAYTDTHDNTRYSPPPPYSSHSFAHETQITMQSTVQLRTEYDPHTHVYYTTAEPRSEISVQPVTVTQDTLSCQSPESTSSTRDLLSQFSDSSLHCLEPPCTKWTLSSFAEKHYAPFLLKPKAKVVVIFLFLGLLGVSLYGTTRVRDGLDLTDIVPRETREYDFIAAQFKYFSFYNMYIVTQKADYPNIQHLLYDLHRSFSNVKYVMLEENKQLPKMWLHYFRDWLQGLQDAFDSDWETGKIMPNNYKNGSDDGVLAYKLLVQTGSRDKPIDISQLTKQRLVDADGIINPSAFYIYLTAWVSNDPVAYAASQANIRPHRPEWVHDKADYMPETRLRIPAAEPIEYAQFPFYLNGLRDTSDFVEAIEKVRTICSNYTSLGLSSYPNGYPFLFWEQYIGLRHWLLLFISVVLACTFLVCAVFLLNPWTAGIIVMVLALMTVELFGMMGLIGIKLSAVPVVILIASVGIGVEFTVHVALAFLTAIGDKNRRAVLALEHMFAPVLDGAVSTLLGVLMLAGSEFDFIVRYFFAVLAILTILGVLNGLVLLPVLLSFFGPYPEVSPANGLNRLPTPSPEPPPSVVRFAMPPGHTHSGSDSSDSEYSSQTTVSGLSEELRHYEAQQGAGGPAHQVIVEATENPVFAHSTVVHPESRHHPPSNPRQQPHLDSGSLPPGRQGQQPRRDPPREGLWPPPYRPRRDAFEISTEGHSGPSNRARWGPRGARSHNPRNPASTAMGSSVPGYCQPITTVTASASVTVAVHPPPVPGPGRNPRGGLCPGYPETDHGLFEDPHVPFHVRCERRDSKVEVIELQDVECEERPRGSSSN
Experiment: doxorubicin efflux from de-energized yeast, fluorescence microscopy
Type: cell-based
Details: read-out: % inhibition of dxr efflux at 10 μM

inhibition at 10 µM: ~40%
Compound: COc1cc(C)c(CC/C(C)=C/Cc2cc(O)ccc2O)c(C)c1C [compound 1, panicein A hydroquinone]

From publication PMC4673163, “Natural paniceins from mediterranean sponge inhibit the multidrug resistance activity of Patched and increase chemotherapy efficiency on melanoma cells” (Oncotarget, 2015)
